Source: patent US10442835B2, “Water-soluble rapamycin derivatives” (Zhejiang Hisun Pharmaceutical Co., Ltd., priority 2016, dated 2019)
“And” between values parts separate entries of the source, which are not always exact repeats. Equal entries are not always repeated.

Key:
[1] = Body weight of DU145 tumor nude mice; details: G1 everolimus 5 mg/kg intragastrical, 3×/w, 4 w;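 note: dosing started once xenografts reached 150-200 mm^3, with mice randomized into three groups, loss of body weight served as an indirect sign of drug toxicity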
Protocol: (§8) DU145 (the 3rd generation) tumors in the rapid proliferation stage inoculated in the axilla of nude mice were cut into tumor lumps with a size of 1 mm*1 mm*1 mm and then were inoculated subcutaneously to the right limb of nude mice using a trocar under a sterile condition. When the tumors grow to 150-200 mm^3, the mice were randomly divided into three groups and then administrated with the compounds for 4 weeks. The major diameter (a) and the minor diameter (b) of the tumors were measured 2 or 3 times a week. The tumor volume (TV) was calculated with the following equation: TV=½×a×b^2. Tumors were stripped and weighted at Day 28 and the tumor inhibition rate was calculated using the following equation: (tumor weight of control−tumor weight of experimental group)/tumor weight of control×100%.
(§9) The nude mice were divided into 3 groups with 4 mice per group when the tumors averagely grew to about 185-200 mm^3, depending on the growth regularity of the tumor and the dosage regimen.
G1: positive drug group: Everolimus (5 mg/kg, qw, 4 w, 3×/w); administration route: intragastrical administration;

[2] = Body weight of NCI-H460 tumor nude mice; details: everolimus 5 mg/kg, compound I-1 6.8 mg/kg, qw 4×;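 note: Tumor-bearing mice dosed for 4 weeks once tumors reached 150–200 mm^3, with a vehicle control group, and body weight loss taken as an indirect sign of drug toxicity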
Protocol: NCI-H460 (the 3rd generation) tumors in the rapid proliferation stage inoculated in the axilla of nude mice were cut into tumor lumps with a size of 1 mm*1 mm*1 mm and then were inoculated subcutaneously to the right limb of nude mice using a trocar under a sterile condition. When the tumors grew to 150˜200 mm^3, the mice were divided into groups and then administrated with the compounds for 4 weeks. The major diameter (a) and the minor diameter (b) of the tumors were measured two or three times a week. The tumor volume (TV) and the relative tumor proliferation rate (T/C) were calculated. The equation for calculating the tumor volume is: TV=½×a×b^2. The equation for calculating the relative tumor proliferation rate is T/C=TRTC/CRTV (TRTC: average relative tumor volume in the treatment group; CRTV: average relative tumor volume in the vehicle control group). Tumors were stripped and weighted at Day 28 and the tumor-inhibition rate was calculated with the following equation: (tumor weight of control−tumor weight of experimental group)/tumor weight of control×100%.
Grouping method: the mice were divided into 3 groups with 6 mice per group when the tumors averagely grew to about 195 mm^3, depending on the growth regularity of the tumor and the dosage regimen. Administration route: intragastrical administration.
G1: Control (vehicle, qw 4×, iv)
G2: Positive drug group: Everolimus (5 mg/kg, qw 4×, iv)

[3] = tested on: human lung cancer cell NCI-H460; assay: In vivo inhibitory activity against NCI-H460 tumor in nude mice; details: everolimus 5 mg/kg, compound I-1 6.8 mg/kg, qw 4×
[4] = tested on: human renal cell carcinoma OS-RC-2; assay: In vivo inhibitory activity against human renal cell carcinoma OS-RC-2 in nude mice
Protocol: The tumor inhibition rate was calculated.

[5] = tested on: human liver cancer cell HepG2; assay: In vitro activity assay, growth of HepG2 (thymidine incorporation); type: cell-based; details: 48 h
Description: (§1) The anti-tumor activity and toxicity of the compounds according to the present invention can be assayed through standard operational procedures of pharmacological experiment. The experiments carried out herein can test the inhibitory effect of the compounds according to the present invention on the growth of human liver cancer cell HepG2, lung cancer cell NCI460, prostate cancer cell DU145, prostate cancer cell PC3, and human breast cancer cell MDA-MB-435. The operational procedure used is briefly described below by taking the inhibitory activity assay against human liver cancer cell HepG2 as an example.
Human liver cancer cell HepG2 grew in the follow medium:
Preparation of the growth medium: BRL minimum essential medium with Earle Salts (500 mL), with the addition of the following agents:
(§2) The operational procedure for the assay is as follows:
(§3) 1. Cells after being trypsinized were inoculated in 96-well plates at a concentration of 10^4 cells/well, and allowed to grow in a medium with a final volume of 200 μL. The 96-well plates after inoculation are allowed to stand for 24 hours at 37° C., in order to allow the cells to adhere to the surface of the wells.
(§4) 2. The medium was removed by carefully pipetting without disturbing the cell monolayer. 200 μL Fresh medium was added into each well. It is arranged to make it possible to collect samples from enough wells to run the experiments in triplicate.
(§5) 3. The compounds to be tested according to the present invention were dissolved into 10 μL phosphate buffered solution (PBS) and incubated for 48 h at 37° C.
(§6) 4. In the last 6 h of incubation, cells in each well of the 96-well plates were labeled by 1 microcurie T thymidine (New England Nuclear thymidine), by adding 10 μL PBS containing 1 microcurie T thymidine (which was added into the PBS on the day of collecting the samples for test). The 96-well plates were then returned to the incubator and incubated for the last 6 h.
(§7) 5. Without disturbing the cell monolayer, the radioactive medium was removed by pipetting. Then 50 μL of BRL 10×trypsin was added to each well, followed by incubation at 37° C. for 10 minutes or until the cell monolayer was detached from the bottom (or the wall) of each well. Samples were collected on glass-fiber diskettes using a Skatron 96-well cell harvester. Cells depositing on the glass-fiber diskettes were counted in a Wallac Betaplate counter.

[6] = tested on: prostate cancer cell DU145; assay: In vitro activity assay, growth of DU145; type: cell-based; details: Homo sapiens; DU-145; 48 h
Description: as §1, §2, §3, §4, §5, §6, §7

[7] = tested on: lung cancer cell NCI460; assay: In vitro activity assay, growth of NCI460; type: cell-based; details: NCI-460, 48 h
Description: as §1, §2, §3, §4, §5, §6, §7

[8] = tested on: human breast cancer cell MDA-MB-435; assay: In vitro activity assay, growth of MDA-MB-435; type: cell-based; details: 48 h
Description: as §1, §2, §3, §4, §5, §6, §7

[9] = tested on: DU145; assay: In vivo tumor inhibitory efficacy against DU145 tumor in nude mice, intragastrical vs injection; details: G1 everolimus 5 mg/kg intragastrical, 3×/w, 4 w
Protocol: as §8, §9

[10] = tested on: prostate cancer cell PC3; assay: In vitro activity assay, growth of PC3; type: cell-based; details: 48 h
Description: as §1, §2, §3, §4, §5, §6, §7

IC50 [5]: 52.29 ± 0.006 µM
IC50 [6]: 57.327 ± 0.005 µM
IC50 [8]: 62.57 ± 0.003 µM
IC50 [10]: 30.27 ± 0.006 µM
Compound: CO[C@H]1C[C@@H]2CC[C@@H](C)[C@@](O)(O2)C(=O)C(=O)N2CCCC[C@H]2C(=O)O[C@H]([C@H](C)C[C@@H]2CC[C@@H](OCCO)[C@H](OC)C2)CC(=O)[C@H](C)/C=C(\C)[C@@H](O)[C@@H](OC)C(=O)[C@H](C)C[C@H](C)/C=C/C=C/C=C/1C [Everolimus, reference compound]
Body Weight, mean value ([1]; Day 0): 24.36 g
Body Weight, mean value ([1]; Day 3): 24.68 g
Decrease rate (body weight) ([1]; Day 3): −1.32%
Decrease in body weight ([1]; Day 3 vs Day 0): -0.32 g
Body Weight, mean value ([1]; Day 7): 24.99 g
Decrease rate (body weight) ([1]; Day 7): −2.59%
Decrease in body weight ([1]; Day 7 vs Day 0): -0.63 g
Body Weight, mean value ([1]; Day 10): 24.93 g
Decrease rate (body weight) ([1]; Day 10): −2.32%
Decrease in body weight ([1]; Day 10 vs Day 0): -0.57 g
Body Weight, mean value ([1]; Day 14): 24.94 g
Decrease rate (body weight) ([1]; Day 14): −2.38%
Decrease in body weight ([1]; Day 14 vs Day 0): -0.58 g
Body Weight, mean value ([1]; Day 17): 25.88 g
Decrease rate (body weight) ([1]; Day 17): −6.24%
Decrease in body weight ([1]; Day 17 vs Day 0): -1.52 g
Body Weight, mean value ([1]; Day 21): 25.27 g
Decrease rate (body weight) ([1]; Day 21): −3.75%
Decrease in body weight ([1]; Day 21 vs Day 0): -0.91 g
Body Weight, mean value ([1]; Day 24): 25.33 g
Decrease rate (body weight) ([1]; Day 24): −3.96%
Decrease in body weight ([1]; Day 24 vs Day 0): -0.97 g
Body Weight, mean value ([1]; Day 28): 25.31 g
Decrease rate (body weight) ([1]; Day 28): −3.90%
Decrease in body weight ([1]; Day 28 vs Day 0): -0.95 g
Body Weights, mean value ([2]; Day 0): 24.50 g
Body Weights, mean value ([2]; Day 3): 24.38 g
Decrease rate (body weight) ([2]; Day 3): 0.51%
Decrease in body weight ([2]; Day 3 vs Day 0): 0.13 g
Body Weights, mean value ([2]; Day 7): 25.44 g
Decrease rate (body weight) ([2]; Day 7): −3.82%
Decrease in body weight ([2]; Day 7 vs Day 0): -0.94 g
Body Weights, mean value ([2]; Day 10): 24.50 g
Decrease rate (body weight) ([2]; Day 10): 0.00%
Decrease in body weight ([2]; Day 10 vs Day 0): 0.00 g
Body Weights, mean value ([2]; Day 14): 25.68 g
Decrease rate (body weight) ([2]; Day 14): −4.83%
Decrease in body weight ([2]; Day 14 vs Day 0): -1.18 g
Body Weights, mean value ([2]; Day 17): 25.39 g
Decrease rate (body weight) ([2]; Day 17): −3.63%
Decrease in body weight ([2]; Day 17 vs Day 0): -0.89 g
Body Weights, mean value ([2]; Day 21): 26.13 g
Decrease rate (body weight) ([2]; Day 21): −6.65%
Decrease in body weight ([2]; Day 21 vs Day 0): -1.63 g
Body Weights, mean value ([2]; Day 24): 25.09 g
Decrease rate (body weight) ([2]; Day 24): −2.41%
Decrease in body weight ([2]; Day 24 vs Day 0): -0.59 g
Body Weights, mean value ([2]; Day 28): 26.14 g
Decrease rate (body weight) ([2]; Day 28): −6.67%
Decrease in body weight ([2]; Day 28 vs Day 0): -1.64 g
Mean Volume of Tumor ([3]; Day 0): 194.8659 mm^3
Mean Volume of Tumor ([3]; Day 3): 264.7517 mm^3
TRTV (average relative tumor volume in the treatment group) ([3]; Day 3): 1.3586
Mean Volume of Tumor ([3]; Day 7): 356.6133 mm^3
TRTV (average relative tumor volume in the treatment group) ([3]; Day 7): 1.8300
Mean Volume of Tumor ([3]; Day 10): 457.1105 mm^3
TRTV (average relative tumor volume in the treatment group) ([3]; Day 10): 2.3458
Mean Volume of Tumor ([3]; Day 14): 626.5192 mm^3
TRTV (average relative tumor volume in the treatment group) ([3]; Day 14): 3.2151
Mean Volume of Tumor ([3]; Day 17): 730.3766 mm^3
TRTV (average relative tumor volume in the treatment group) ([3]; Day 17): 3.7481
Mean Volume of Tumor ([3]; Day 21): 1386.2102 mm^3
TRTV (average relative tumor volume in the treatment group) ([3]; Day 21): 6.6005
Mean Volume of Tumor ([3]; Day 24): 1593.5901 mm^3
TRTV (average relative tumor volume in the treatment group) ([3]; Day 24): 7.1515
Tumor Inhibition Rate ([3]; Day 28, by tumor weight): 56% and 56.01%
Mean Volume of Tumor ([3]; Day 28): 1955.7073 mm^3
TRTV (average relative tumor volume in the treatment group) ([3]; Day 28): 9.5230
Tumor Weight ± SD ([3]; Day 28): 1.1741 ± 0.3687 g
Tumor Inhibition Rate ([4]; G2 everolimus 2 mg/kg ig 3×/qw): 35.6%
Tumor Inhibition Rate ([4]; G3 everolimus 6 mg/kg ig 3×/qw): 41.1%
Tumor Weight ± SD ([4]; end of experiment, G3 everolimus 6 mg/kg ig 3×/qw): 0.4093 ± 0.3863 g
IC50 [7]: 99.811 ± 0.004 µM
Mean Volume of Tumor ([9]; Day 0): 198.71 mm^3
Mean Volume of Tumor ([9]; Day 3): 216.57 mm^3
Mean Volume of Tumor ([9]; Day 7): 208.07 mm^3
Mean Volume of Tumor ([9]; Day 10): 215.24 mm^3
Mean Volume of Tumor ([9]; Day 14): 236.94 mm^3
Mean Volume of Tumor ([9]; Day 17): 268.62 mm^3
Mean Volume of Tumor ([9]; Day 21): 298.50 mm^3
Mean Volume of Tumor ([9]; Day 24): 289.57 mm^3
Mean Volume of Tumor ([9]; Day 28): 302.22 mm^3
